The source of these data is US9926293B2, “Multivalent RAS binding compounds” (THE TRUSTEES OF COLUMBIA UNIVERSITY IN THE CITY OF NEW YORK, priority 2014, dated 2018).

Molecules are shown by their SMILES. Bounds are passed on as bounds.

The subject of data set [1] is SW480 (KRAS^G12V). In words: Multicellular tumor spheroids in low adherence plates. Type of data set: cell-based. The following applies: 72 hours. The procedure:
Multicellular Tumor Spheroids
Multicellular tumor spheroids (MCTSs) were grown in 96-well Corningware Ultra Low Attachment (ULA) Plates (CLS 3474). 100 μL of cell suspension containing 2×10^4 cells/ml were added to each well of the ULA plate containing 100 μL of a 2× solution of the desired concentration of compounds. Cells were incubated at 37° C., 5% CO2 for 72 hours to allow for MCTS formation. After 72 hours, 50 μL of a 50% solution of Alamar blue and medium was added and incubated for 12 hours prior to measurements on a Victor3 plate reader as previously described.

Data set [2] has as its system HT-1080 cells (NRAS^Q61K) transfected. In words: Sensitivity of HT-1080 cells overexpressing KRAS^G12V, PI3K^E545K, BRAF^V600E. Type of data set: cell-based. The following applies: BRAF^V600E or both, 5 μM, 24 h. The procedure:
RAS, PI3K and BRAF Overexpression.
Phoenix-AMPHO (ATCC: CRL-3213) cells were seeded in a 6-well plate at 600,000 cells/well 24 hours prior to use in 10% FBS and 1% PS in DMEM. A solution of lipofectamine 2000 (6 μL) in 100 μL opti-mem media (reduced serum media) and the plasmid (2.5 μg) in 100 μL opti-mem media were combined and incubated 5 minutes at 25° C., then added to 1.8 mL of opti-mem in each well. After 12 hours, the media was replaced with 10% FBS and 1% PS in DMEM. The next day the supernatant was collected three times spaced 4 hours apart and polybrene was added ( 1/1000). The supernatant was filtered (0.45 μm) and added to HT1080 cells seeded at 100,000 cells per well (6-well dish) in 2 mL portions spaced 4 hours apart. After 48 hours, the cells were trypsinized and re-seeded in medium containing puromycin (2 μg/mL). After 6 days of selection the cells were analyzed for expression using the aforementioned qPCR procedure. 2 mL solutions of the inhibitors were added to a 6-well plate of the transfected HT-1080 cells (100,000 cells/well) and treated for 24 hours. The cells were then trypsinized, re-suspended in 1 mL of medium and viability was measured by VI-CELL (Beckman Coulter) through mixing with trypan blue.

Data set [3] can be described thus: In vivo pharmacokinetic analysis. The arrangement: species or system male C57 adult mice. The following applies: male, C57, mouse, 20 mg/kg, plasma over 12 hours. The procedure:
In Vivo Pharmacokinetic Analysis
The dose formulation was prepared freshly in the morning of dosing day. A total of 42 male C57 adult mice, each approximately 25 grams in body weight, were administered at 20 mg/kg dose via a single IV bolus injection or a single oral gavage. Blood samples (approximately 400 μL) were collected from three mice per time point via terminal brachial bleed at pre-dose and 30 minutes, 1 hour, 2 hours, 4 hours, 8 hours and 12 hours post-dose. Blood samples were placed into tubes containing K2 EDTA anti-coagulant, and centrifuged at about 2,100 g (rcf) for 10 minutes at 4° C. to separate plasma. Following centrifugation, the resulting plasma was transferred to clean tubes and stored frozen at −80° C. The mouse plasma samples (50 μL) were aliquoted, spiked with internal standard (250 ng/mL tolbutamide), and then extracted with protein precipitation. The supernatant of each sample was diluted and injected into a LC-MS/MS system. The data acquisition and processing were performed using a Sciex API 5500 mass spectrometer with Analyst 1.6.2 software. The standard curve range for the plasma samples was analyzed using a calibration curve of 0.5-5000 ng/mL. The pharmacokinetic (PK) analysis and interpretation of the results were conducted using Winnonlin Phoenix Software.

Data set [4] relates to MDA-MB-231 xenografts. The data set is described as follows: Mouse xenograft, pharmacodynamic study. Type of data set: in vivo. The procedure:
For the pharmacodynamic study, athymic nude mice (eight weeks; Charles River Laboratories) were injected with 8 million MDA-MB-231 cells subcutaneously. […] Tumor size was measured by electronic caliper every two days and calculated using the formula: 0.523×Length×width^2.
Mice were euthanized using a CO2 gas chamber before xenograft dissection. Tumors were then weighed, frozen and stored at −80° C. Segments of the tumor were taken (about 60 mg) and suspended in 120 μL lysis buffer. Xenografts were then lysed by sonication (40 amp for 10-15 seconds) and samples were centrifuged at 14,000 rpm at 4° C. for 30 minutes to remove unlysed cells and debris. The supernatant was then analyzed by Western blotting using the aforementioned protocol.

Data set [5] concerns DLD1 (KRAS^Q61H). The data set is described as follows: Cell viability assay (384-well, Alamar blue). The note with it: Homo sapiens, DLD-1, Table 8, 48 hours. Type of data set: cell-based. The procedure: (§1) All cell culture assays were incubated at 37° C., 5% CO2 in media containing Dulbecco's Modified Eagle Medium (DMEM) with 10% fetal bovine serum (FBS) and 1% penicillin-streptomycin (PS). 384-well format for EC50 determination: cells were trypsinized, counted, and seeded into 384-well plates at 1,000 cells/well. After 12-16 hours, compounds (as 50 mM stocks in DMSO) were arrayed in an 8- or 16-point dilution series in 384-well polypropylene plates. Compound solutions were transferred at a 1:5 dilution into the assay plates. After 48 hours, a 50% Alamar blue solution was added to a final concentration of 10% Alamar blue. After 6 hours of incubation, fluorescence intensity was determined using a Victor3 plate reader (Perkin Elmer) with a 535 nm excitation filter and a 590 nm emission filter. All compound measurements were performed in triplicate. For experiments performed in 6-well format, cells were trypsinized, counted, and seeded into 6-well plates at 200,000 cells per well 16 h prior to use. Media was then aspirated and replaced with 2 mL of media containing compounds at the indicated concentrations (from 10 mM stocks in DMSO). After 24 hours, cells were trypsinized and viability was determined using Trypan Blue exclusion assay.

For data set [6], the system named is A549 (KRAS^G12S). In words: Cell viability assay (384-well, Alamar blue). Type of data set: cell-based. The following applies: Homo sapiens, Table 8, 48 hours. The procedure:
as §1
In general terms: The colour change of resazurin is a common sign of viable cells or microbes.

Data set [7] relates to H441 (KRAS^G12V). In words: Cell viability assay (384-well, Alamar blue). Type of data set: cell-based. The following applies: Homo sapiens, NCI-H441, Table 8, 48 hours. The procedure:
as §1

In data set [8] the test system is H23 (KRAS^G12C). In words: Cell viability assay (384-well, Alamar blue). The following applies: Table 8, 48 hours. Type of data set: cell-based. The procedure: as §1
Data set [9] concerns H358 (KRAS^G12C). In words: Cell viability assay (384-well, Alamar blue). Type of data set: cell-based. The note with it: Homo sapiens, NCI-H358, Table 8, 48 hours. The protocol:
as §1

The test system of data set [10] is H460 (KRAS^Q61H). The data set is described as follows: Cell viability assay (384-well, Alamar blue). Type of data set: cell-based. The note with it: Homo sapiens, NCI-H460, Table 8, 48 hours. The protocol: as §1

As to `NC1(C(=O)NCCCn2cc(-c3ccc(OC(F)(F)F)cc3)c3cc(CN4CCN(Cc5c(Cl)cccc5Cl)CC4)ccc32)CCNCC1` [Compound 31MEW44, 4-amino-N-(3-(5-((4-(2,6-dichlorobenzyl)piperazin-1-yl)methyl)-3-(4-(trifluoromethoxy)phenyl)-1H-indol-1-yl)propyl)piperidine-4-carboxamide], the “size of multicellular tumor spheroids” value in [1] was “decreased in size in a dose-dependent manner”. Further, the resistance on overexpression entry in data set [2] is “resistance was indeed observed in all cases”. The half-life (in general, how long it takes for the measured level to halve) in data set [3] (intravenous delivery, no elimination) was above 12 h; in data set [3] (oral delivery), 3.1 h. For the same compound, in [4] (30 mg/kg daily intraperitoneal injection), the toxicity entry is “No overt toxicity”. In addition, the “tumor pERK levels lower than vehicle” value in data set [4] (Western blotting of xenografts, 30 mg/kg i.p.) is on record as “about 70%”. Further, the EC50 (commonly the concentration at which the effect is half-maximal) in data set [5] was 8.8 µM; in data set [6], 4.8 µM; in data set [7], 4.9 µM; in data set [8], 2.4 µM; in [9], 2.8 µM; in [10], 4.9 µM.
